Assays:
ECFCs [1] = test: Inhibition studies (FI 14, GM6001, blebbistatin) in ECFC-loaded D-hydrogels; format: cell-based, human; set-up: ECFC aspect ratio (cell spreading) / integrin cluster size and area covered / integrin intensity and number / cellular protrusions and filopodia / sprouting: unit of the concentration uncertain; conditions: for vascular bed formation (tube length and volume): 3 days, blebbistatin 60 mM, FI 14 10 mM
Procedure: For 2D screening of the FI 14 (FI-14, R 95.0%; Sigma-Aldrich), the ECFCs were seeded into a 96-well plate at a cell density of 10000 cells/well in EGM-2 media (Lonza) with 10% FBS (Hyclone). After 1 day of culture, 100 μL of EGM-2 media containing increased concentrations of FI 14 ranging from 0 to 10 μM were added per well and culture for additional 24 hr following by staining for phospho-FAK (Tyr397;ThermoFisher Scientific) as described below. Biological triplicates were tested for each FI 14 concentrations. For inhibition studies, ECFCs were suspended in the hydrogel precursor as above with the addition of 10 mM of FI-14 (Sigma-Aldrich) or GM6001 (1 mg mL^−1; Sigma-Aldrich), 60 mM Blebbistain (Sigma-Aldrich) or vehicle control (DMSO; Sigma-Aldrich). The corresponding culture media also supplied with the corresponding inhibitor/vehicle control at the same concentration. Media was replenish every 24 h till analysis.

ECFCs [2] = test: as above; format: cell-based, human; set-up: unit of the concentration uncertain; conditions: 0.1 (unit uncertain), versus controls
mUPS spheroids = test: Sarcoma spheroid encapsulation in hydrogels; format: cell-based, murine; conditions: co-encapsulated in quick-relaxing hydrogels
Procedure: Spheroids were formed using hanging droplet culture. Briefly, cell monolayers were grown until ˜75% confluent, rinsed with PBS, and passaged with 0.25% Trypsin-EDTA. Hanging droplets of 10,000 cells/20 μL droplet were formed on the inside of the cover of a 60 mm […]. 10 mL of PBS were placed in the bottom of the dish to act as a hydration chamber. Spheroids were cultured as hanging droplets for three days prior to encapsulation in hydrogels. 10 μl of media was added to each droplet on the second day of droplet culture.
For spheroid encapsulation, a similar protocol was followed with the adjustments for spheroids. We first collected 12 spheroids in a 1.5 mL Eppendorf tube, centrifuged for 3 minutes, and then pipetted off the media. All subsequent steps were identical to single-cell encapsulation. Cells in hydrogels were cultured under standard conditions and daily media changes of 200 μL.
Light microscopy images of encapsulated cells were recorded daily at 4×, 10×, and 20× magnifications starting at post-encapsulation (PE) Day 0. For spheroid area quantification, 10× images were grouped by individual spheroid and the area of the spheroid was manually traced in FIJI (NIH) for each day. Days 1-3 were normalized to the size of the spheroid on Day 0. […]

[3] = 60 (unit uncertain), 24 h, ECFCs in D-hydrogels

| SMILES | ECFC aspect ratio (cell spreading) (ECFCs [1]; 10 (unit uncertain), 24 h, versus control D-hydrogels) | sprouting (ECFCs [1]; 10 (unit uncertain), ECFCs in D-hydrogels) | phosphorylation of MLC (ECFCs [1]; 24 h, ECFCs in D-hydrogels) | integrin β1 and integrin aV mRNA expression (ECFCs [1]; 24 h, versus D-hydrogel controls) | MMP1 and MMP9 mRNA levels (ECFCs [1]; 24 h, versus untreated controls) | MT1-MMP expression at protein and mRNA levels (ECFCs [1]; 24 h in culture) | vascular bed formation (tube length and volume) (ECFCs [1]; ECFCs in D-hydrogels) | stiffness of ECFC-loaded D-hydrogels (ECFCs [1]; day 3, versus without MMP inhibitor) | tubulogenesis of ECFCs (ECFCs [2]) | cellular protrusions and filopodia (ECFCs [1]; [3]) | integrin cluster size and area covered (ECFCs [1]; [3]) | integrin intensity and number (ECFCs [1]; [3]) | spheroid size under contractility inhibition (mUPS spheroids) |
| --- | --- | --- | --- | --- | --- | --- | --- | --- | --- | --- | --- | --- | --- |
| Nc1cc(N)c(N)cc1N [FI 14] | cell spreading is reduced | significant reduction | reduces the phosphorylation of MLC | downregulation | significant reduction | significantly lower expression | decrease in tube length and volume |  |  |  |  |  |  |
| CNC(=O)[C@H](Cc1c[nH]c2ccccc12)NC(=O)[C@@H](CC(=O)NO)CC(C)C [GM6001] |  |  |  |  |  |  |  | significantly stiffer | inhibited |  |  |  |  |
| Cc1ccc2c(c1)C(=O)C1(O)CCN(c3ccccc3)C1=N2 (centres unmarked) [blebbistatin] |  |  |  |  |  |  | shorter tube length and reduced vessel volume |  |  | decrease | significant decrease | did not affect | not sufficient to fully mirror spheroid shrinkage |
